The structures appear in SMILES notation. Values after ≈ are worked out from the molar mass of the structure shown. Like-named read-outs stand apart in the source and are kept apart here. Some results are limits rather than exact numbers.

The test system of assay [1] is S. aureus strain NCTC 8325. Nature of the assay: minimal inhibiting concentration (MIC) in liquid bacterial culture. The note with it: overnight 37° C. The class given is cell-based. How it is done:
(§1) 1 ml of an appropriate bacterial broth for the standard laboratory S. aureus strain NCTC 8325 were inoculated with 1*10^6 cfu. The cultures were kept overnight at 37° C. with gentle shaking 300 rpm in the presence of compounds AVU1Acid, AVU1AAc, AVU1AA or VK273 according to the present invention at different concentrations or dimethyl sulfoxide (DMSO) as control. Different beta-lactone virulence inhibitors were used as reference compounds. Following overnight incubation the optical density was measured in order to determine the minimal inhibiting concentration (MIC), which is defined as the lowest concentration of an antimicrobial that will inhibit the visible growth of a microorganism after overnight incubation. A 100 μl fraction of the supernatant of the grown bacterial cultures was subsequently analysed for the content of secreted bacterial hemolysins by addition of sheep red blood cells (10% v/v in PBS) and the measurement of the optical density at 410 nm after 30 min incubation at 37° C.

The test system of assay [2] is S. aureus strain NCTC 8325. Nature of the assay: liquid culture-based hemolysis assay (secreted hemolysins, sheep red blood cells). Type of assay: cell-based. How it is done: The inhibition of hemolysin production has thus been further analysed in liquid bacterial cultures in order to evaluate their potential effects on bacterial growth simultaneously. Besides AVU1Acid, AVU1AAc, AVU1AA and VK273 the following further compounds were tested in liquid bacterial cultures:
as §1
The following results were obtained in further liquid culture-based hemolysis assays. Since the assays were performed at different times with different charges of sheep red blood cells AVU1 has been tested as a reference substance in each assay. The resulting EC50 values determined for the tested compounds have to be assessed with respect to the EC50 value determined for AVU1.

Assay [3] has as its target T1, CIpP protease from S. aureus NCTC8325 (SaCIpP) (Staphylococcus aureus, UniProt Q2G036).
T1 construct: made in house; host or cells: E. coli
T1 sequence (Q2G036 1-195): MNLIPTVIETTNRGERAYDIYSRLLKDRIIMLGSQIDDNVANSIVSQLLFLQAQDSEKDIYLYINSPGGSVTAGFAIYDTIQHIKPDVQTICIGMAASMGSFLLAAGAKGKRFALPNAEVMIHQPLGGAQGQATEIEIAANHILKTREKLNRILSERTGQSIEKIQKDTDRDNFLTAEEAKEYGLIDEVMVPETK
Nature of the assay: in vitro inhibition of recombinant S. aureus CIpP with SLY-AMC substrate. Type of assay: biochemical. The note with it: inhibitor 2 mM (1000×), 30 min RT; SLY-AMC 200 μM; FIG. 3. How it is done: The CIpP protease from S. aureus NCTC8325 (SaCIpP) was recombinantly overexpressed in E. coli and purified in order to investigate enzyme inhibition using SLY-AMC (N-succinyl-Leu-Tyr-7-amido-4-methylcoumarin) as fluorogenic model substrate.
Precisely, 9 μl of SaCIpP in buffered solution (final concentration 0.05 mg/ml, 2 μM; buffer: 100 mM NaCl, 20 mM Tris, pH 7.0) were incubated in the presence of 1 μl of various inhibitors (final concentration 2 mM=1000×) for 30 min at room temperature (RT). Subsequently, SLY-AMC was added to a final concentration of 200 μM and the increase in fluorescence due to enzymatic substrate proteolysis was measured using a TECAN GENios Pro™ plate reader at 380/440 nm (excitation/emission) at time intervals of 60 s over 40 min at 37° C. The enzymatic activity was determined as the slope of fluorescence (2=440 nm) over time. As positive controls, the in vivo active beta-lactone compound AVU1 (“U1”; WO 2009/106211) and the in vitro potent CIpP beta-lactone inhibitor D3 (WO 2009/106211) were employed.

Another assay has as its system S. aureus NCTC 8325. Nature of the assay: agar plate-based hemolysis assay on sheep blood agar. Type of assay: cell-based. The note with it: FIG. 1; over night at 37° C. An excerpt: Several compounds of the invention as well as reference compounds have been tested against S. aureus NCTC 8325 on sheep blood agar. Hemolysins are key virulence factors of S. aureus that contribute to the pathogenicity of these bacteria. The production of hemolysins can be easily monitored by lysis of sheep blood and generation of a clear zone around the bacterial colonies on the agar plate. Hemolysins are co-regulated with the majority of important virulence factors and have been qualified in previous studies as a reliable measure of agr quorum sensing regulated virulence (T. Böttcher, S. A. Sieber, J Am Chem Soc 2008, 130, 14400).
Agar plate-based hemolysis was tested on 5% sheep blood agar plates (Heipha Diagnostika, Eppelheim, Germany). Sterile circles of Whatman® cards (No. 1, Schleicher & Schuell) with 5.5 mm diameter were placed on the agar plates and inoculated with 2.5 μL of the corresponding lactone/DMSO and 2.5 μL stationary phase culture of S. aureus NCTC 8325 diluted to OD600=0.13. The plates were incubated over night at 37° C. and the diameters of the zones around the bacterial colonies were precisely measured using a vernier caliper. Doses of the compounds required to produce the half maximum effect (ED50) were calculated from curve fittings by Microcal™ Origin 6.0.

The mark [4] stands for this setting: Assay 4, hemolysin production, assess relative to AVU1.
The mark [5] stands for this setting: Staphylococcus aureus, NCTC8325, Assay 3, read-out: MIC.
The mark [6] stands for this setting: Staphylococcus aureus, NCTC8325, Erythrocyte, Assay 3, hemolysin production, assess relative to AVU1.
[7] abbreviates: Staphylococcus aureus, NCTC8325, Assay 1, read-out: MIC.
The mark [8] stands for this setting: Staphylococcus aureus, NCTC8325, Erythrocyte, Assay 1, hemolysin production.
The mark [9] stands for this setting: Assay 2, hemolysin production, assess relative to AVU1.

What is called MIC is the lowest concentration that inhibits growth of the organism. What is called EC50 is the concentration needed to bring the measured effect to its halfway point. Molecule `C#CCCCCCCC[C@H](C(=O)O)[C@H](O)CCc1ccc(C2(C(F)(F)F)N=N2)cc1` (relative stereo) [JS-11_1, (3R*,2S*)-3-Hydroxy-2-(8-noninyl)-5-(4-(3-trifluoromethyl-3H-diazirinyl)-phenyl)-pentanoic acid] yielded an MIC in assay [1] (Assay 4) of 10 to 50 µM. The molecule further returned an EC50 in assay [2] (setting [4]) of 3.6 µM.

In assay [1] (Assay 4), `C#CCCCCCCC[C@@H](C(=O)O)[C@H](O)CCc1ccc(C2(C(F)(F)F)N=N2)cc1` (relative stereo) [JS-11_2, (3R*,2R*)-3-Hydroxy-2-(8-noninyl)-5-(4-(3-trifluoromethyl-3H-diazirinyl)-phenyl)-pentanoic acid] showed an MIC of 10 to 50 µM. In assay [2] (setting [4]), the response was half-maximal at 2.2 µM (EC50).

As to `C#CCCCCCCC[C@H](C(=O)OC)[C@H](O)CCc1ccc(C2(C(F)(F)F)N=N2)cc1` (relative stereo) [JS-14_1, Methyl (3R*,2S*)-3-Hydroxy-2-(8-noninyl)-5-(4-(3-trifluoromethyl-3H-diazirinyl)-phenyl)-pentanoate], the MIC in assay [1] (Assay 4, read-out: MIC) is listed as >1000 µM. In assay [2] (setting [4]), this molecule gave an EC50 of 166 µM.

Turning to `C#CCCCCCCC[C@H](C(N)=O)[C@H](O)CCc1ccc(C2(C(F)(F)F)N=N2)cc1` (relative stereo) [JS-14_1Amid, (3R*,2S*)-3-Hydroxy-2-(8-noninyl)-5-(4-(3-trifluoromethyl-3H-diazirinyl)-phenyl)-pentanamide], the MIC in assay [1] (Assay 4, read-out: MIC) is on record as >1000 µM. In assay [2] (setting [4]), this molecule yielded an EC50 of 2.3 µM.

Regarding `C#CCCCCCCC[C@@H](C(=O)OC)[C@H](O)CCc1ccc(C2(C(F)(F)F)N=N2)cc1` (relative stereo) [JS-14_2, Methyl (3R*,2R*)-3-Hydroxy-2-(8-noninyl)-5-(4-(3-trifluoromethyl-3H-diazirinyl)-phenyl)-pentanoate], the MIC in assay [1] (Assay 4, read-out: MIC) is given as >1000 µM. The same molecule registered an EC50 in assay [2] (setting [4]) of 64 µM.

Take `C#CCCCCCCC[C@@H](C(N)=O)[C@H](O)CCc1ccc(C2(C(F)(F)F)N=N2)cc1` (relative stereo) [JS-14_2Amid, (3R*,2R*)-3-Hydroxy-2-(8-noninyl)-5-(4-(3-trifluoromethyl-3H-diazirinyl)-phenyl)-pentanamide]: the MIC in assay [1] (Assay 4, read-out: MIC) was >1000 µM. A half-maximal effect in assay [2] (setting [4]) (EC50) was put at 2.8 µM.

As for `C=CCCCCCCC[C@@H](C(N)=O)[C@H](O)CCCc1ccccc1` (relative stereo) [VK375, (2R*,3R*)-3-Hydroxy-2-(non-8-enyl)-6-phenylhexanamide], the minimal inhibitory concentration (MIC) was >1000 µM in assay [1] (Assay 3, read-out: MIC) and > 1000 µM in assay [1] (setting [5]). Also, the concentration giving a half-maximal response (EC50) in assay [2] (setting [6]) was 1 to 5 µM.

Take `NC(=O)[C@H](CCc1ccccc1)[C@H](O)CCc1ccccc1` (relative stereo) [VK403-1, (2R*,3R*)-3-Hydroxy-2-(2-phenylethyl)-5-phenylpentanamide]: the MIC in assay [1] (Assay 3, read-out: MIC) was >1000 µM; in assay [1] (setting [5]), > 1000 µM. In assay [2] (setting [6]), the EC50 lay within 50 to 100 µM.

`CCCCCCCCC[C@@H](C(N)=O)[C@H](O)CCc1ccccc1` (relative stereo) [VK453-1, (2R*,3R*)-3-Hydroxy-2-nonyl-5-phenylpentanamide]: the MIC in assay [1] (Assay 2, read-out: MIC) is >1000 µM; in assay [1] (Staphylococcus aureus, NCTC8325, Assay 2, read-out: MIC), > 1000 µM. For the same molecule, the 50% effective concentration (EC50) in assay [2] (Staphylococcus aureus, NCTC8325, Erythrocyte, Assay 2, hemolysin production, assess relative to AVU1) fell in the range of 1 to 5 µM.

For the molecule `C=CCCCCCCC[C@@H](C(N)=O)[C@H](O)Cc1ccccc1` (relative stereo) [VK508-3, (2R*,3R*)-3-Hydroxy-2-(non-8-enyl)-4-phenylbutanamide], the MIC in assay [1] (Assay 3, read-out: MIC) is >1000 µM; in assay [1] (setting [5]), > 1000 µM. The molecule also had an EC50 in assay [2] (setting [6]) of 10 to 50 µM.

For `C=CCCCCCCCC(C(=O)O)C(CCc1ccccc1)OC(C)=O` (stereo not shown) [AVU1AAc, 3-acetoxy-2-(non-8-enyl)-5-phenylpentanoic acid], the MIC in assay [1] (setting [7]) lay within 50 to 100 µM (≈ 18 to 36 µg/mL). The molecule also had a 50% effective concentration (EC50) in assay [2] (setting [8]) of 2.43 µM. In addition, the “inhibition of SaCIpP” value in assay [3] is reported as “inhibit SaCIpP at an at least comparable level as the in vivo active beta-lactone reference compound AVU1”. In the assay on S. aureus NCTC 8325, the “inhibition of hemolysis (virulence inhibition) on sheep blood agar” value (from here on “inhibition of hemolysis”) is “high”.

`C=CCCCCCCCC(C(=O)SCC(NC(C)=O)C(=O)OC)C(CCc1ccccc1)OC(C)=O` (stereo not shown) [AVU1AAcTE, reference compound]: in the assay on S. aureus NCTC 8325, the “inhibition of hemolysis” value was “only low efficiency and incomplete inhibition of hemolysis”.

Regarding `C=CCCCCCCCC(C(=O)OC)C(O)CCc1ccccc1` (stereo not shown) [AVU1AME], the “inhibition of SaCIpP” value in assay [3] is on record as “inhibit SaCIpP at an at least comparable level as the in vivo active beta-lactone reference compound AVU1”. Besides, the “inhibition of hemolysis” value in the assay with S. aureus NCTC 8325 is on record as “moderate”.

`C=CCCCCCCCC(C(=O)O)C(O)CCc1ccccc1` (stereo not shown) [AVU1Acid, 3-hydroxy-2-(non-8-enyl)-5-phenylpentanoic acid]: the MIC in assay [1] (setting [7]) was in the range of 50 to 100 µM (≈ 15.9 to 31.8 µg/mL). Further, in assay [2] (setting [8]), the EC50 turned out to be 1.18 µM. Also, the “inhibition of hemolysis” value in the assay with S. aureus NCTC 8325 was “potent virulence inhibitors”.

Consider `C=CCCCCCCCC1OC(=O)C1CCc1ccccc1` (stereo not shown) [AVU4, reference compound], for which the MIC in assay [1] (setting [7]) is > 1000 µM. The molecule also came in with an EC50 in assay [2] (setting [8]) of 435 µM.

For `C=CCCCCCCC[C@H]1C(=O)O[C@@H]1CCc1cc(F)cc(F)c1` [AVU5, reference compound], the MIC in assay [1] (setting [7]) is > 1000 µM. For the same molecule, in assay [2] (setting [8]), the EC50 turned out to be 16.1 µM.

Turning to `C=CCCCCCCC[C@H]1C(=O)O[C@@H]1Cc1ccccc1` [AVU6, reference compound], in assay [1] (setting [7]), the MIC was > 1000 µM. Moreover, in assay [2] (setting [8]), the 50% effective concentration (EC50) is 440 µM.

For `C=CCCCCCCC[C@H]1C(=O)O[C@@H]1CCCc1ccccc1` [AVU7, reference compound], the MIC in assay [1] (setting [7]) was > 1000 µM. In assay [2] (setting [8]), the response was half-maximal at 22 µM (EC50).

With `C#CCCCCCCCC(C(=O)O)C(O)CCc1ccc(C(=O)c2ccccc2)cc1` (stereo not shown) [JS-64, 5-(4-Benzoylphenyl)-3-hydroxy-2-(8-noninyl)-pentanoic acid], the minimal inhibitory concentration (MIC) in assay [1] (Assay 2, read-out: MIC) is recorded as >1000 µM. Also, the EC50 in assay [2] (setting [9]) lay within 1 to 5 µM.

Regarding `C#CCCCCCCCC(C(N)=O)C(O)CCc1ccc(C(=O)c2ccccc2)cc1` (stereo not shown) [JS-65, 5-(4-Benzoylphenyl)-3-hydroxy-2-(8-noninyl)-pentanamide], the MIC in assay [1] (Assay 2, read-out: MIC) is listed as >1000 µM. The EC50 in assay [2] (setting [9]) lay in the range of 1 to 5 µM.

(Values after US20140323457A1, “BETA-O/S/N FATTY ACID BASED COMPOUNDS AS ANTIBACTERIAL AND ANTIPROTOZOAL AGENTS” (LUDWIG-MAXIMILIANS-UNIVERSITÄT MÜNCHEN, priority 2011, published 2014).)
